One data set addresses T1, human FSH receptor (Homo sapiens, UniProt P23945).
T1 construct: expressed in transfected cells
T1 sequence (P23945 18-695): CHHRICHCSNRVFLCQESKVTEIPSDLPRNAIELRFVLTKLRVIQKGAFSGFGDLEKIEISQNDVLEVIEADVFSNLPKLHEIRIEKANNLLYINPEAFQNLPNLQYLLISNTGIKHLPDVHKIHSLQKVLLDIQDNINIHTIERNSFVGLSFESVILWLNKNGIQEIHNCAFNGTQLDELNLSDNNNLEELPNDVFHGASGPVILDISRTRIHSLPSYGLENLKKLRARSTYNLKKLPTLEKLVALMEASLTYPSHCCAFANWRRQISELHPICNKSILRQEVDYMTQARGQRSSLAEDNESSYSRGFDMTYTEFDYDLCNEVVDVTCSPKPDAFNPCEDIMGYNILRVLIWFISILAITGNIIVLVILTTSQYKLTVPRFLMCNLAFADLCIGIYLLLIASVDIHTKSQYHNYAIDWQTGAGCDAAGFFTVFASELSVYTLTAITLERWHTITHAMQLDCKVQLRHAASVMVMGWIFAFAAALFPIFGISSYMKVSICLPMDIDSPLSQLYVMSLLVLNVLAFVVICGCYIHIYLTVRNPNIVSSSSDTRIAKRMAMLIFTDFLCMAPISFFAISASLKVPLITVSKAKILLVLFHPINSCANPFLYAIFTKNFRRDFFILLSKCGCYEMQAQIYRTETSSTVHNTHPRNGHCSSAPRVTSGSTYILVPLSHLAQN
Put plainly: hFSHRago (CHO luc): agonistic activity at the human FSH receptor expressed in CHO cells, CRE-luciferase reporter. The note with it: CHO cells stably transfected with human FSH receptor and CRE/luciferase reporter; 4 hours of incubation. It counts as cell-based.

One may read the EC50 as the concentration giving half of the maximal effect. A low value points to higher potency in that assay. As a reminder, the melting point is the temperature of the solid-liquid transition. For `COc1cc2c(cc1Oc1ncccn1)-c1c(-c3cccs3)cc(C(=O)N(C)C(C)(C)C)n1CC2` [Example 76, N-tert-butyl-8-methoxy-N-methyl-9-(pyrimidin-2-yloxy)-1-(thiophen-2-yl)-5,6-dihydro-pyrrolo[2,1-α]isoquinoline-3-carboxamide], the melting point is 164 to 165 °C. Further, the EC50 on human FSH receptor came to 18.9 nM.
For `COc1cc2c(cc1OC(C)C)-c1c(-c3cccs3)cc(C(=O)N3C[C@H]4C[C@@H](NC(C)=O)C[C@H]4C3)n1CC2` [Example 25, N-[-2-(9-isopropoxy-8-methoxy-1-thiophen-2-yl-5,6-dihydro-pyrrolo[2,1-α]isoquinoline-3-carbonyl)-octahydro-cyclopenta[c]pyrrol-5-endo-yl]-acetamide], in that order: 106 to 112 °C and 45.4 nM.
Taken in the same sequence, the figures for `COc1cc2c(cc1NC(=O)c1cccnc1)-c1c(-c3cccs3)cc(C(=O)N(C)C(C)(C)C)n1CC2` [Example 102, 8-Methoxy-9-[(pyridine-3-carbonyl)-amino]-1-thiophen-2-yl-5,6-dihydro-pyrrolo[2,1-α]isoquinoline-3-carboxylic acid tert-butyl-methyl-amide] were 223 to 224 °C and 13 nM.
Taken in the same sequence, the figures for `COc1cc2c(cc1OC(C)C)-c1c(-c3cccs3)cc(C(=O)N(C)C(C)(C)CO)n1CC2` [Example 30, 9-Isopropoxy-8-methoxy-1-thiophen-2-yl-5,6-dihydro-pyrrolo[2,1-α]isoquinoline-3-carboxylic acid (2-hydroxy-1,1-dimethyl-ethyl)-methyl-amide] were 150 to 152 °C and 1 nM.
As for `COc1cc2c(cc1OC(C)C)-c1c(-c3cccs3)cc(C(=O)N3CC4CC(C3)c3cccc(=O)n3C4)n1CC2` (stereo not drawn) [Example 18, 3-(9-Isopropoxy-8-methoxy-1-thiophen-2-yl-5,6-dihydro-pyrrolo[2,1-α]isoquinoline-3-carbonyl)-1,2,3,4,5,6-hexahydro-1,5-methano-pyrido[1,2-α][1,5]diazocin-8-one], the melting point was determined as 260 °C. The molecule further showed an EC50 at human FSH receptor of 37.3 nM.
For `COc1cc2c(cc1C(=O)Nc1nncs1)-c1c(-c3cccs3)cc(C(=O)N(C)C(C)(C)C)n1CC2` [Example 123, 8-Methoxy-1-thiophen-2-yl-5,6-dihydro-pyrrolo[2,1-α]isoquinoline-3,9-dicarboxylic acid 3-(tert-butyl-methyl-amide) 9-[1,3,4]thiadiazol-2-ylamide], in that order: 149 to 152 °C and 1 nM.

The record behind these values is US8394789B2, “(Dihydro)pyrrolo[2,1-α]isoquinolines” (MSD Oss B.V., priority 2008, dated 2013).
